Laboratory results taken from patent US7425565B2, “Use of benzothiopenes to treat and prevent prostate cancer” (Cedars-Sinai Medical Center, priority 2002, dated 2008).
Entries after “also recorded” stand apart in the source; their conditions may differ. Where a name gives a salt, the structure may show the parent alone.

Tests used:
[1] = test system: androgen-independent prostate cancer; test: Treatment of male patients with androgen-independent prostate cancer (Example 1); assay type: in vivo, human
Protocol: Three male patients were selected for treatment on the basis of established diagnosis with prostate cancer. All three patients had failed standard androgen withdrawal therapy. Average prostate-specific antigen (“PSA”) levels for each patient at the beginning of treatment was about 20-30 ng/ml. Hormone ablative therapy, in some cases aggressively administered as long as 36 months, had failed, manifested by a continued rise in PSA levels in each patient. […] Each patient continued to receive luteinizing hormone-releasing hormone (“LHRH”)-agonist therapy, despite tumor growth in its presence. This is considered standard therapy, as tumor growth is likely to be more aggressive if testosterone levels were allowed to return to normal in these patients.

[2] = test system: human prostate tumor cells (CWR22R); test: Inhibition of tumor growth in androgen-independent xenograft model (CWR22R); assay type: in vivo, nude mice; details: 0.85 mg/kg daily s.c., after 30 days
Source text: The inventor used an androgen-independent xenograft model of human prostate tumor cells (CWR22R) to raise tumors in male and female nude mice. Tumors developed over a period of 2-3 weeks into palpable masses. 10 mice were randomly assigned to a treatment group and 10 mice were assigned to a control group. […] Mice in the control group received an injection of saline solution. After 30 days, tumors from surviving mice were surgically removed and visibly examined. Tumor size was reduced by 60% in mice from the treated group as compared to mice from the control group and female hosts.

[3] = test system: MSKPC9 tumor xenografts; test: Growth of androgen independent MSKPC9 tumor xenografts; assay type: in vivo, nude athymic BALB/c male mice; details: 40 mg/kg 5x/wk p.o., orchiectomized mice
Protocol: Xenograft studies were performed as described in D. B. Agus et al., “Response of prostate cancer to anti-Her-2/neu antibody in androgen-dependent and -independent human xenograft models,” Cancer Res. 59(19):4761-4764 (1999). Orchiectomized seven- to eight-week-old nude athymic BALB/c male mice were obtained from the National Cancer Institute and maintained in pathogen-free conditions. Mice were inoculated subcutaneously (“s.c.”) with minced tumor tissue together with […] reconstituted basement membrane (available from BD Biosciences Discovery Labware; Bedford, Mass.) from the established androgen independent (“AI”) MSKPC9 xenograft cell lines; cell lines are described in M. Nagabhushan et al., “CWR22: the first human prostate cancer xenograft with strongly androgen-dependent and relapsed strains both in vivo and in soft agar,” Cancer Res. 56(13):3042-3046 (1996), and D. B. Agus et al., “Prostate cancer cell cycle regulators: response to androgen withdrawal and development of androgen independence,” J. Natl. Cancer Inst. 91(21):1869-76 (1999).
Tumors were measured twice weekly with vernier calipers, and tumor volumes were calculated by the formula (π/6)×(larger diameter)×(smaller diameter)^2, described in M. F. Press et al., “HER-2/neu gene amplification characterized by fluorescence in situ hybridization: poor prognosis in node-negative breast carcinomas,” J. Clin Oncol. […]

[4] = test system: PSA; test: PSA levels in animals with MSKPC9 xenografts (enzymatic immunoassay); assay type: in vivo, nude athymic BALB/c male mice
Protocol: Levels of PSA in the blood of implanted animals were determined using an enzymatic immunoassay kit (obtained from American Qualex; San Clemente, Calif.). Blood samples were obtained prior to treatment by a small incision in the dorsal tail vein to collect 50 μl of blood using a serum-separator tube, or via a cardiac draw at sacrifice.

[5] = test system: ER-β mRNA; test: Real-time RT-PCR of MSKPC9 xenograft tumors, ER-β mRNA; assay type: in vivo; details: MSKPC9 tumor xenografts, treated vs control
Protocol: Total RNA was extracted from prostate tumors using TRIZOL reagent (available from Invitrogen Corporation; Carlsbad, Calif.). DNase I (obtained from Ambion, Inc.; Austin, Tex.) was used to rid the samples of any extraneous DNA that might interfere with the reaction. The yield was quantified spectrophotometrically. Total RNA was reverse-transcribed into cDNA and PCR was performed in the same reaction by using TAQMAN One-Step RT-PCR Master Mix Reagents Kit (obtained from Applied Biosystems; Foster City, Calif.; hereinafter “Applied Biosystems”). Probes were labeled with 6-FAM on the 5′ end and TAMRA on the 3′ end. β-actin was used as the endogenous control and normalizer. The primer pairs used are depicted in Table 1, as follows:
The PCR cycling conditions were performed for all of the samples as follows: 30 minutes at 48° C. for RT step; 10 minutes at 95° C. for […] GOLD Activation (available from Applied Biosystems); and 40 cycles for the melting (95° C., 15 seconds), and annealing/elongation (60° C. for one minute) steps. PCR reactions for each template were done in triplicate using 1 μg of total mRNA per sample. Each gene-specific primer pair was tested on standard 384-well plates. […]
The comparative Ct method (PE Applied Biosystems) was used to determine relative quantification of gene expression for each gene compared with the β-actin control. […]

[6] = test system: androgen-independent prostate cancer (AIPC); test: Clinical study of raloxifene in androgen-independent prostate cancer: response and survival; assay type: in vivo, human
Source text: Between August 2001 and July 2002, twenty-one patients were enrolled into the study at the Prostate Cancer Center of Cedars-Sinai Medical Center in Los Angeles, Calif. Patients who were eligible for the study were men who had histologically confirmed adenocarcinoma of the prostate and confirmed disease progression after hormonal therapy. Patients were required to have progression of disease as evidenced by CT scan or rising PSA on two successive measurements after discontinuation of anti-androgen therapy. In addition, patients receiving androgen receptor-blocking agents as their last form of therapy had to have confirmed disease progression after drug withdrawal. Nonsurgically castrated patients continued to receive LHRH agonist while on study to maintain castrate levels of serum testosterone.
Both patients with measurable disease by either bone scan or CT scan, and evaluable disease evidenced by rising PSA were included in the study. Patients whose only evidence of disease progression was rising PSA had to have an increasing PSA on any two determinations drawn at two least weeks apart, with a greater than 20% increase from the baseline value. Other eligibility criteria included: Karnofsky performance status >70%, life expectancy >12 weeks (with at least four weeks since major surgery or radiation therapy), and at least 12 weeks for treatment with strontium-89, rhenium, or samarium-153. […] Patients with a history of uncontrolled or severe cardiovascular disease (e.g., inadequately uncontrolled hypertension, congestive heart failure, angina, or myocardial infarction within the previous year), a history of thromboembolism, a history of biliary colic or untreated cholethiasis were excluded. Patients with brain metastasis, clinical signs of brain involvement or leptomeningeal disease, dementia, psychoses, or other significant impairment of mental status were excluded. Patients with a history of another malignancy during the past five years (other than non-melanomatous skin cancer or in situ stage T1a bladder cancer), patients with active infections requiring antibiotics, or patients on concurrent commercial or investigational antineoplastic therapies were excluded. No concomitant use of prostata or saw palmetto was permitted.
(§1) Response to therapy was assessed after the first two months of therapy and then monthly thereafter. Toxicity was assessed monthly at each study visit. […] A partial response (“PR”) required a decrease by >50% of the sum of the products of the perpendicular diameters for all measurable lesions lasting at least one month, no appearance of new lesions, and a reduction in serum PSA by >50% on two consecutive occasions at least one month apart. For patients being evaluated by bone metastases, a PR required a reduction in serum PSA by >50% on two consecutive occasions at least one month apart an improvement in bone scan (reduction in intensity or size of one or more metastatic foci and no new foci of radionuclide uptake unless due to […] healing documented on plain radiograph, CT scan, or MRI scan). During this time there should have been no cancer-associated deterioration in weight, performance status, or symptoms. Progressive disease (“PD”) was defined by any of the following: (1) increase >25% in the sum of the products of the perpendicular diameters of bidimensionally measurable lesions in the sum of the transverse diameters of unidimensionally measurable lesions, (2) the appearance of new lesions, and (3) by the increase in serum PSA >50% over baseline as documented on two successive measurements >28 days apart. […] For PD to be scored by PSA criteria alone, a confirmatory PSA determination was required and obtained two weeks after the value representing a >50% increase. Patients who had improvement in one objective parameter while meeting the criteria for PD by another parameter were scored as having PD.
Treatment was administered with monthly lab draws and follow-up visits with the physician. […]

[7] = Clinical study of raloxifene: toxicity (NCI Common Toxicity Criteria, v2.0); assay type: in vivo, human
Protocol: as §1
Treatment was administered with monthly lab draws and follow-up visits with the physician. […] Patients received 1 mg oral COUMADIN daily (or 0.5 mg oral COUMADIN daily if patients were already taking aspirin).
The reported urinary tract infection (“UTI”) (1) and hematuria (1) were thought to be related to the patient's underlying disease. Two grade 3 events were reported: a grade 3 arthralgia/myalgia thought to be related to the patient's recent injury, and a grade 3 elevated creatinine that was attributed to the patient's disease progression.

[8] = EVISTA package insert; cited from earlier work
[9] = test system: androgen-independent prostate cancer; details: several previous clinical trials; cited from earlier work

O=C(c1ccc(OCCN2CCCCC2)cc1)c1c(-c2ccc(O)cc2)sc2cc(O)ccc12 [raloxifene HCl, Raloxifene hydrochloride]
bone scan of the longest treated patient ([1]; 17 months since beginning therapy): improvement in their bone scan
continued PSA of the longest treated patient ([1]; 17 months since beginning therapy, 60 mg/day orally): < 0.4 ng/mL
decline of PSA levels ([1]; three patients, 60 mg orally once a day for a minimum of 30 days, continued LHRH-agonist therapy): > 50%
reduction of tumor size vs control group [2]: 60%

O=C(c1ccc(OCCN2CCCCC2)cc1)c1c(-c2ccc(O)cc2)sc2cc(O)ccc12 [raloxifene]
tumor stabilization (non-progression), leveling off of rising serum PSA ([1]; majority of patients treated): tumor stabilization occurred
mean tumor volume vs control group (FIG. 1A) [3]: reduction in mean tumor volume; also recorded: tumors were smaller
mean tumor weight vs control group (FIG. 1B) [3]: reduction in mean tumor weight
PSA (per tumor volume) (FIG. 3) ([4]; MSKPC9 tumor xenografts, raloxifene treatment): increasing
levels of PSA in the blood of implanted animals (FIG. 3) ([4]; MSKPC9 xenograft animals treated with raloxifene): rising PSA levels
ER-β mRNA, difference between treatment groups [5]: no difference
improvement in soft tissue or bone disease ([6]; 60 mg oral daily): No improvement in soft tissue or bone disease was observed
median time to disease progression ([6]; 60 mg oral daily): 8.3 weeks
patients with progressive disease at the first evaluation time point ([6]; 60 mg oral daily): thirteen of the eighteen
patients with stable disease at the first evaluation time point ([6]; 60 mg oral daily): five of eighteen
time to disease progression, range ([6]; 60 mg oral daily): 2.9-24.71 weeks
progression of soft tissue or osseous disease ([6]; 60 mg oral daily, first evaluation time point): No progression of soft tissue or osseous disease was observed
patients alive ([6]; as of July, 2003, 19 of 21): 90%
median survival ([6]; at time of analysis (November, 2002)): 10.5 months
patients discontinued due to progressive disease (rising PSA) at the second evaluation point ([6]; of the five patients with stable disease): four
severity of most drug related toxicities reported ([7]; 60 mg oral daily): mild (grade 1-2)
tolerability ([7]; 60 mg oral daily, with low dose COUMADIN): well tolerated
Patients experiencing drug-related toxicity: Anemia ([7]; Grade 1): 2 patients
Patients experiencing drug-related toxicity: Arthralgia/Myalgia ([7]; Grade 1): 2 patients
Patients experiencing drug-related toxicity: Bicarbonate ([7]; Grade 1): 1 patients
Patients experiencing drug-related toxicity: Bone Pain ([7]; Grade 1): 1 patients
Patients experiencing drug-related toxicity: Diarrhea ([7]; Grade 1): 1 patients
Patients experiencing drug-related toxicity: Edema ([7]; Grade 1): 1 patients
Patients experiencing drug-related toxicity: Fatigue/Malaise ([7]; Grade 1): 1 patients
Patients experiencing drug-related toxicity: Hematuria ([7]; Grade 1): 1 patients
Patients experiencing drug-related toxicity: Hot flashes ([7]; Grade 1): 2 patients
Patients experiencing drug-related toxicity: Hypercholesterolemia ([7]; Grade 1): 2 patients
Patients experiencing drug-related toxicity: Hyperglycemia ([7]; Grade 1): 1 patients
Patients experiencing drug-related toxicity: Hypoalbuminemia ([7]; Grade 1): 2 patients
Patients experiencing drug-related toxicity: Hypoglycemia ([7]; Grade 1): 1 patients
Patients experiencing drug-related toxicity: Increased Alkaline Phosphatase ([7]; Grade 1): 3 patients
Patients experiencing drug-related toxicity: Increased Creatinine ([7]; Grade 1): 1 patients
Patients experiencing drug-related toxicity: Increased SGOT (AST) ([7]; Grade 1): 1 patients
Patients experiencing drug-related toxicity: Nausea/Vomiting ([7]; Grade 1): 1 patients
Patients experiencing drug-related toxicity: Rash ([7]; Grade 1): 1 patients
Patients experiencing drug-related toxicity: UTI ([7]; Grade 1): 1 patients
Patients experiencing drug-related toxicity: Anemia ([7]; Grade 2): 1 patients
Patients experiencing drug-related toxicity: Bone Pain ([7]; Grade 2): 1 patients
Patients experiencing drug-related toxicity: Constipation ([7]; Grade 2): 2 patients
Patients experiencing drug-related toxicity: Fatigue/Malaise ([7]; Grade 2): 1 patients
Patients experiencing drug-related toxicity: Hypertriglyceridemia ([7]; Grade 2): 1 patients
Patients experiencing drug-related toxicity: Hypotension ([7]; Grade 2): 1 patients
Patients experiencing drug-related toxicity: Nausea/Vomiting ([7]; Grade 2): 1 patients
Patients experiencing drug-related toxicity: Arthralgia/Myalgia ([7]; Grade 3): 1 patients
Patients experiencing drug-related toxicity: Hyperglycemia ([7]; Grade 3): 1 patients
Patients experiencing drug-related toxicity: Increased Creatinine ([7]; Grade 3): 1 patients
tolerability in previous clinical studies [8]: well tolerated

CC/C(=C(\c1ccccc1)c1ccc(OCCN(C)C)cc1)c1ccccc1 [tamoxifen]
effect on androgen-independent prostate cancer [9]: no effect
